Experimental data as given in US7495030B2, “(5-(2-hydroxy-4-chlorobenzoyl) aminovaleric acid and salts thereof and compositions containing the same for delivering active agents” (Emisphere Technologies, Inc., priority 2000, dated 2009).

Legend:
[1] = Insulin oral delivery in rats, serum human insulin by ELISA and serum glucose; assay type: in vivo, Male Sprague-Dawley rats; conditions: delivery agent compound dose 200 mg/kg, insulin dose 0.5 mg/kg, volume dose 1.0 ml/kg
Description: Oral dosing (PO) compositions of delivery agent compound and human zinc insulin (minimum 26 IU/mg available from Calbiochem—Novabiochem Corp, La Jolla, Calif.) were prepared in deionized water. […] The solution was vortexed, then heated (about 37° C.) and sonicated. The pH was adjusted to about 7 to 8.5 with NaOH or HCl.
About 1.25 mg insulin from an insulin stock solution (15 mg/ml made from 0.5409 g insulin and […] deionized water, adjusting with HCl and NaOH to pH 8.15 and to obtain a clear solution using […]) was added to the solution and mixed by inverting.
The typical dosing and sampling protocols were as follows. […] A dosing group of five animals was administered one of the dosing solutions. […] The syringe was filled with dosing solution by drawing the solution through the catheter, which was then wiped dry. The catheter was placed down the esophagus leaving 1 cm of tubing past the incisors. Solution was administered by pressing the syringe plunger.
Serum insulin levels were determined with an Insulin ELISA Test Kit (Kit # DSL-10-1600 from Diagnostic Systems Laboratories, Inc., Webster, Tex.), modifying the standard protocol in order to optimize the sensitivity and linear range of the standard curve for the volumes and concentrations of the samples used in the present protocol. […]

O=C(O)CCCCNC(=O)c1ccc(Cl)cc1O [Compound 1, 5-(2-Hydroxy-4-Chlorobenzoyl)Aminovaleric Acid]
melting point: 140 to 141 °C | Mean peak serum insulin [1]: 36.25 ± 2.5 μU/ml
